Assay [1] has as its system E. coli strains with elevated MICs to Polymyxin B. In words: MIC against strains with elevated MICs to Polymyxin B. In kind it is cell-based, Escherichia coli. Particulars: Table 6D; for MIC E. coli 058: strain 058, elevated MIC to Polymyxin B; for MIC E. coli 059: strain 059, elevated MIC to Polymyxin B; for MIC E. coli 060: strain 060, elevated MIC to Polymyxin B; for MIC E. coli 061: strain 061, elevated MIC to Polymyxin B. How it is done: (§1) The inoculum was prepared by making a direct suspension of isolated colonies (selected from an 18-24 hour Mueller-Hinton agar plate) adjusted to the 0.5 McFarland standard. […] The assays were performed in duplicate. […] In cases where the duplicate values varied by less than 2-fold, the lower of the two values is reported. If a variation of greater than 2-fold was observed, the assay was considered non-valid. Several of the compounds were subjected to multiple tests, and where this is the case, the MIC reflects the modal value obtained.
(§2) The Further Synthesis Examples were tested against a range of Gram negative bacteria, and tested for HK-2 cell toxicity. All the worked examples, including the Synthesis and Further Synthesis Examples, were also tested against a range of Gram negative bacteria that are resistant to Polymyxin B (i.e. those strains where Polymyxin B has an elevated MIC value).

In a further assay the test system is A. baumannii. Particulars: sole activity, Table 6C.
In the next assay the test system is P. aeruginosa. Particulars: sole activity, Table 6C.
Assay [2] relates to P. aeruginosa strains with elevated MICs to Polymyxin B. Briefly: MIC against strains with elevated MICs to Polymyxin B. It counts as cell-based, Pseudomonas aeruginosa. Particulars: Table 6D; for MIC P. aeruginosa 066: strain 066, elevated MIC to Polymyxin B; for MIC P. aeruginosa 067: strain 067, elevated MIC to Polymyxin B; for MIC P. aeruginosa 065: strain 065, elevated MIC to Polymyxin B. The method, then:
as §1, §2

For assay [3], the system named is A. baumanii strains with elevated MICs to Polymyxin B. The assay is described as above. It counts as cell-based, Acinetobacter baumannii. As to conditions: Table 6D; for MIC A. baumannii 053: strain 053, elevated MIC to Polymyxin B; for MIC A. baumannii 056: strain 056, elevated MIC to Polymyxin B; for MIC A. baumannii 068: strain 068, elevated MIC to Polymyxin B; for MIC A. baumannii 070: strain 070, elevated MIC to Polymyxin B. The method, then:
as §1, §2

The subject of the next assay is E. coli. Particulars: sole activity, Table 6C.
In a further assay the test system is K. pneumoniae. As to conditions: sole activity, Table 6C.
For assay [4], the system named is K. pneumoniae strains with elevated MICs to Polymyxin B. In words: MIC against strains with elevated MICs to Polymyxin B. It counts as cell-based, Klebsiella pneumoniae. Particulars: Table 6D; for MIC K. pneumoniae 062: strain 062, elevated MIC to Polymyxin B; for MIC K. pneumoniae 063: strain 063, elevated MIC to Polymyxin B; for MIC K. pneumoniae 064: strain 064, elevated MIC to Polymyxin B; for MIC K. pneumoniae 655: strain 655, elevated MIC to Polymyxin B. How it is done: as §1, §2

Bounds are passed on as bounds.

Take “3-aminomethyl- undecanoyl L- Thr-L-Dap- polymyxin B heptapeptide [Example D91]”: in assay [1], the “MIC E. coli 058” value came out at 1 micrograms/mL, the “MIC E. coli 059” value is listed as 0.5 micrograms/mL, the “MIC E. coli 060” value is recorded as 2 micrograms/mL and the “MIC E. coli 061” value was determined as 4 micrograms/mL. Besides, in the assay on A. baumannii, the “MIC, A. baumannii ATCC BAA-747” value is given as 0.25 micrograms/mL and the “MIC, A. baumannii NCTC 13424” value turned out to be 0.5 micrograms/mL. Further, in the assay on P. aeruginosa, the “MIC, P. aeruginosa ATCC 27853” value is 0.5 micrograms/mL and the “MIC, P. aeruginosa CCUG 59347” value worked out at 0.5 micrograms/mL. Moreover, in assay [2], the “MIC P. aeruginosa 066” value came to 2 micrograms/mL and the “MIC P. aeruginosa 067” value was 16 micrograms/mL. Further, in assay [3], the “MIC A. baumannii 053” value is 8 micrograms/mL, the “MIC A. baumannii 056” value is given as 2 micrograms/mL, the “MIC A. baumannii 068” value was found to be 2 micrograms/mL and the “MIC A. baumannii 070” value was found to be 1 micrograms/mL. The “MIC, E. coli ATCC 25922” value against E. coli amounted to 0.5 micrograms/mL. Moreover, the “MIC, K. pneumoniae ATCC 4352” value in the assay with K. pneumoniae came out at 0.25 micrograms/mL. Also, in assay [4], the “MIC K. pneumoniae 062” value is 8 micrograms/mL, the “MIC K. pneumoniae 063” value is given as 16 micrograms/mL, the “MIC K. pneumoniae 064” value is on record as 4 micrograms/mL and the “MIC K. pneumoniae 655” value amounted to 8 micrograms/mL.
In the case of “trans-5-phenyl- piperidine-3- carbonyl L-Thr-L- Dap-polymyxin B heptapeptide [Example D84]”, in assay [1], the “MIC E. coli 058” value worked out at 4 micrograms/mL, the “MIC E. coli 059” value was 8 micrograms/mL, the “MIC E. coli 060” value is recorded as 4 micrograms/mL and the “MIC E. coli 061” value is recorded as 8 micrograms/mL. In addition, in the assay with A. baumannii, the “MIC, A. baumannii ATCC BAA-747” value was found to be 0.06 micrograms/mL and the “MIC, A. baumannii NCTC 13424” value came to 0.25 micrograms/mL. In addition, in the assay on P. aeruginosa, the “MIC, P. aeruginosa ATCC 27853” value is recorded as 0.5 micrograms/mL and the “MIC, P. aeruginosa CCUG 59347” value was 0.5 micrograms/mL. Also, in assay [2], the “MIC P. aeruginosa 065” value was 8 micrograms/mL, the “MIC P. aeruginosa 066” value came out at 2 micrograms/mL and the “MIC P. aeruginosa 067” value is recorded as over 64 micrograms/mL. In assay [3], the “MIC A. baumannii 053” value was over 64 micrograms/mL, the “MIC A. baumannii 056” value stood at 32 micrograms/mL, the “MIC A. baumannii 068” value amounted to 8 micrograms/mL and the “MIC A. baumannii 070” value is recorded as 16 micrograms/mL. Further, in the assay on E. coli, the “MIC, E. coli ATCC 25922” value came out at 0.25 micrograms/mL and the “MIC, E. coli NCTC 13441” value is listed as 0.06 micrograms/mL. Besides, the “MIC, K. pneumoniae ATCC 4352” value in the assay with K. pneumoniae is 0.125 micrograms/mL. Further, in assay [4], the “MIC K. pneumoniae 062” value is reported as over 64 micrograms/mL, the “MIC K. pneumoniae 063” value was determined as 32 micrograms/mL, the “MIC K. pneumoniae 064” value came to 8 micrograms/mL and the “MIC K. pneumoniae 655” value was determined as 16 micrograms/mL.
As to “(trans-5- (cyclohexyl- piperidine)-3- carbonyl L-Thr-L- Dap-polymyxin B heptapeptide [Example D78]”, in assay [1], the “MIC E. coli 058” value was determined as 0.5 micrograms/mL, the “MIC E. coli 059” value is on record as 0.5 micrograms/mL, the “MIC E. coli 060” value is given as 1 micrograms/mL and the “MIC E. coli 061” value was 1 micrograms/mL. Besides, in the assay on A. baumannii, the “MIC, A. baumannii ATCC BAA-747” value was 0.06 micrograms/mL and the “MIC, A. baumannii NCTC 13424” value was found to be 0.06 micrograms/mL. Moreover, in the assay with P. aeruginosa, the “MIC, P. aeruginosa ATCC 27853” value is listed as 0.5 micrograms/mL and the “MIC, P. aeruginosa CCUG 59347” value worked out at 0.5 micrograms/mL. Further, in assay [2], the “MIC P. aeruginosa 065” value turned out to be 1 micrograms/mL, the “MIC P. aeruginosa 066” value came out at 0.5 micrograms/mL and the “MIC P. aeruginosa 067” value worked out at 32 micrograms/mL. In addition, in assay [3], the “MIC A. baumannii 053” value was 8 micrograms/mL, the “MIC A. baumannii 056” value came to 50.25 micrograms/mL, the “MIC A. baumannii 068” value is given as 1 micrograms/mL and the “MIC A. baumannii 070” value was 1 micrograms/mL. In addition, in the assay on E. coli, the “MIC, E. coli ATCC 25922” value is 0.125 micrograms/mL and the “MIC, E. coli NCTC 13441” value is reported as 0.125 micrograms/mL. In addition, the “MIC, K. pneumoniae ATCC 4352” value against K. pneumoniae is 0.06 micrograms/mL. The “MIC, K. pneumoniae ATCC BAA-2146” value against K. pneumoniae (K. pneumoniae ATCC BAA-2146) worked out at 0.125 micrograms/mL. In assay [4], the “MIC K. pneumoniae 063” value was determined as 4 micrograms/mL, the “MIC K. pneumoniae 064” value was 1 micrograms/mL and the “MIC K. pneumoniae 655” value is reported as 4 micrograms/mL.

These data come from US20210221848A1, “POLYMYXIN DERIVATIVES AND THEIR USE IN COMBINATION THERAPY TOGETHER WITH DIFFERENT ANTIBIOTICS” (priority 2014, published 2021).
